From PubChem BioAssay AID2060620 (Molecular Pharmacology Branch, DTP, NCI, 2025)

System: 328373-195-R-J1-PDC complex spheroids, viability % test/control
Test: Anticancer human tumor 328373-195-R-J1-PDC patient-derived head and neck squamous carcinoma cell line growth inhibition [CLK]
Settings: for IC50: curve of first compound; for viability, T/C: stronger effect = lower value; active = viability on the fitted dose curve at most 10% of control; inactive = the rest
How it was run: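 Multi-cell-type spheroids combined patient-derived tumor cells with HUVEC endothelial cells and human mesenchymal stem cells. Paired agents were dosed in half-log steps down from about clinical Cmax, or from 10 microM where Cmax was unknown.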

[1] = second compound 0.0316 µM, first compound 0.00949 µM
[2] = second compound 0.0316 µM, first compound 0.03 µM
[3] = second compound 0.0316 µM, first compound 0.0949 µM
[4] = second compound 0.0316 µM, first compound 0.3 µM
[5] = second compound 0.1 µM, first compound 0.00949 µM
[6] = second compound 0.1 µM, first compound 0.03 µM
[7] = second compound 0.1 µM, first compound 0.0949 µM
[8] = second compound 0.1 µM, first compound 0.3 µM
[9] = second compound 0.316 µM, first compound 0.00949 µM
[10] = second compound 0.316 µM, first compound 0.03 µM
[11] = second compound 0.316 µM, first compound 0.0949 µM
[12] = second compound 0.316 µM, first compound 0.3 µM
[13] = second compound 1 µM, first compound 0.00949 µM
[14] = second compound 1 µM, first compound 0.03 µM
[15] = second compound 1 µM, first compound 0.0949 µM
[16] = second compound 1 µM, first compound 0.3 µM
[17] = second compound 3.16 µM, first compound 0.00949 µM
[18] = second compound 3.16 µM, first compound 0.03 µM
[19] = second compound 3.16 µM, first compound 0.0949 µM
[20] = second compound 3.16 µM, first compound 0.3 µM
[21] = second compound 10 µM, first compound 0.00949 µM
[22] = second compound 10 µM, first compound 0.03 µM
[23] = second compound 10 µM, first compound 0.0949 µM
[24] = second compound 10 µM, first compound 0.3 µM
[25] = second compound 0.0316 µM, first compound 0.0316 µM
[26] = second compound 0.0316 µM, first compound 0.1 µM
[27] = second compound 0.0316 µM, first compound 0.316 µM
[28] = second compound 0.0316 µM, first compound 1 µM
[29] = second compound 0.0316 µM, first compound 3.16 µM
[30] = second compound 0.0316 µM, first compound 10 µM
[31] = second compound 0.1 µM, first compound 0.0316 µM
[32] = second compound 0.1 µM, first compound 0.1 µM
[33] = second compound 0.1 µM, first compound 0.316 µM
[34] = second compound 0.1 µM, first compound 1 µM
[35] = second compound 0.1 µM, first compound 3.16 µM
[36] = second compound 0.1 µM, first compound 10 µM
[37] = second compound 0.316 µM, first compound 0.0316 µM
[38] = second compound 0.316 µM, first compound 0.1 µM
[39] = second compound 0.316 µM, first compound 0.316 µM
[40] = second compound 0.316 µM, first compound 1 µM
[41] = second compound 0.316 µM, first compound 3.16 µM
[42] = second compound 0.316 µM, first compound 10 µM
[43] = second compound 1 µM, first compound 0.0316 µM
[44] = second compound 1 µM, first compound 0.1 µM
[45] = second compound 1 µM, first compound 0.316 µM
[46] = second compound 1 µM, first compound 1 µM
[47] = second compound 1 µM, first compound 3.16 µM
[48] = second compound 1 µM, first compound 10 µM
[49] = second compound 3.16 µM, first compound 0.0316 µM
[50] = second compound 3.16 µM, first compound 0.1 µM
[51] = second compound 3.16 µM, first compound 0.316 µM
[52] = second compound 3.16 µM, first compound 1 µM
[53] = second compound 3.16 µM, first compound 3.16 µM
[54] = second compound 3.16 µM, first compound 10 µM
[55] = second compound 10 µM, first compound 0.0316 µM
[56] = second compound 10 µM, first compound 0.1 µM
[57] = second compound 10 µM, first compound 0.316 µM
[58] = second compound 10 µM, first compound 1 µM
[59] = second compound 10 µM, first compound 3.16 µM
[60] = second compound 10 µM, first compound 10 µM
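Also: spheroids exposed to the agents for 7 days.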

C=CC(=O)Nc1cc(Nc2nccc(-c3cn(C)c4ccccc34)n2)c(OC)cc1N(C)CCN(C)C + CNC(=O)c1ccc(Nc2nc(OC3CCCC3)c3c(-c4ccc5nc(C)oc5c4)c[nH]c3n2)c(OC)c1
active: viability, T/C [5] 10% | viability, T/C [6] 10.6% | viability, T/C [7] 6.8% | viability, T/C [8] 4.77% | viability, T/C (second compound 0.316 µM, first compound 0.003 µM) 9.46% | viability, T/C [9] 9.6% | viability, T/C [10] 11.1% | viability, T/C [11] 7.49% | viability, T/C [12] 5.37% | viability, T/C [13] 9.93% | viability, T/C [14] 9.14% | viability, T/C [15] 7.31% | viability, T/C [16] 3.84% | viability, T/C [17] 10.8% | viability, T/C [18] 10.1% | viability, T/C [19] 8.03% | viability, T/C [20] 3.03% | viability, T/C [22] 11.5% | viability, T/C [23] 9.82% | viability, T/C [24] 3.85%
39.4 nM: IC50 (second compound 0.0316 µM)
< 0.949 nM: IC50 (second compound 0.1 µM) | IC50 (second compound 0.316 µM) | IC50 (second compound 1 µM) | IC50 (second compound 3.16 µM) | IC50 (second compound 10 µM)
inactive: viability, T/C (second compound 0.0316 µM, first compound 0.000949 µM) 53.9% | viability, T/C (second compound 0.0316 µM, first compound 0.003 µM) 60.2% | viability, T/C [1] 57.1% | viability, T/C [2] 50.1% | viability, T/C [3] 44% | viability, T/C [4] 28.7% | viability, T/C (second compound 0.1 µM, first compound 0.000949 µM) 12.7% | viability, T/C (second compound 0.1 µM, first compound 0.003 µM) 11.5% | viability, T/C (second compound 0.316 µM, first compound 0.000949 µM) 10.9% | viability, T/C (second compound 1 µM, first compound 0.000949 µM) 9.22% | viability, T/C (second compound 1 µM, first compound 0.003 µM) 11.8% | viability, T/C (second compound 3.16 µM, first compound 0.000949 µM) 10.8% | viability, T/C (second compound 3.16 µM, first compound 0.003 µM) 9.2% | viability, T/C (second compound 10 µM, first compound 0.000949 µM) 12% | viability, T/C (second compound 10 µM, first compound 0.003 µM) 10.6% | viability, T/C [21] 11.6%

CC1(C)CCC(CN2CCN(c3ccc(C(=O)NS(=O)(=O)c4ccc(NCC5CCOCC5)c([N+](=O)[O-])c4)c(Oc4cnc5[nH]ccc5c4)c3)CC2)=C(c2ccc(Cl)cc2)C1 + CNC(=O)c1ccc(Nc2nc(OC3CCCC3)c3c(-c4ccc5nc(C)oc5c4)c[nH]c3n2)c(OC)c1
< 31.6 nM: IC50 (second compound 0.1 µM) | IC50 (second compound 0.316 µM) | IC50 (second compound 1 µM) | IC50 (second compound 3.16 µM) | IC50 (second compound 10 µM)
inactive: viability, T/C [25] 55.4% | viability, T/C [26] 54.7% | viability, T/C [27] 51.1% | viability, T/C [28] 55.7% | viability, T/C [29] 39.5% | viability, T/C [31] 9.96% | viability, T/C [32] 10.7% | viability, T/C [33] 12.1% | viability, T/C [34] 11.7% | viability, T/C [35] 11.5% | viability, T/C [36] 6.36% | viability, T/C [37] 10% | viability, T/C [55] 12.1% | viability, T/C [56] 9.87% | viability, T/C [57] 10.2% | viability, T/C [58] 11.4% | viability, T/C [59] 12.4% | viability, T/C [60] 11.9%
active: viability, T/C [30] 7.81% | viability, T/C [38] 10.9% | viability, T/C [39] 10.2% | viability, T/C [40] 9.51% | viability, T/C [41] 8.53% | viability, T/C [42] 6.4% | viability, T/C [43] 7.73% | viability, T/C [44] 8.42% | viability, T/C [45] 10.8% | viability, T/C [46] 10.6% | viability, T/C [47] 9.13% | viability, T/C [48] 6.23% | viability, T/C [49] 8.9% | viability, T/C [50] 11.5% | viability, T/C [51] 10.7% | viability, T/C [52] 10.2% | viability, T/C [53] 9.43% | viability, T/C [54] 6.44%
1390 nM: IC50 (second compound 0.0316 µM)

NC(=O)C(=Cn1cnc(-c2cc(C(F)(F)F)cc(C(F)(F)F)c2)n1)c1cncnc1 + CNC(=O)c1ccc(Nc2nc(OC3CCCC3)c3c(-c4ccc5nc(C)oc5c4)c[nH]c3n2)c(OC)c1
inactive: viability, T/C [1] 38.7% | viability, T/C [2] 20.8% | viability, T/C [5] 15.9%
active: viability, T/C [3] 0.53% | viability, T/C [4] 0.2% | viability, T/C (second compound 0.0316 µM, first compound 0.949 µM) 0.1% | viability, T/C (second compound 0.0316 µM, first compound 3 µM) 0.07% | viability, T/C [6] 3.9% | viability, T/C [7] 0.26% | viability, T/C [8] 0.16% | viability, T/C (second compound 0.1 µM, first compound 0.949 µM) 0.11% | viability, T/C (second compound 0.1 µM, first compound 3 µM) 0.06% | viability, T/C [9] 6.88% | viability, T/C [10] 2.56% | viability, T/C [11] 0.37% | viability, T/C [12] 0.09% | viability, T/C (second compound 0.316 µM, first compound 0.949 µM) 0.1% | viability, T/C (second compound 0.316 µM, first compound 3 µM) 1.78% | viability, T/C [13] 5.63% | viability, T/C [14] 1.81% | viability, T/C [15] 0.17% | viability, T/C [16] 0.06% | viability, T/C (second compound 1 µM, first compound 0.949 µM) 0.08% | viability, T/C (second compound 1 µM, first compound 3 µM) 0.06% | viability, T/C [17] 5.68% | viability, T/C [18] 1.86% | viability, T/C [19] 0.15% | viability, T/C [20] 0.15% | viability, T/C (second compound 3.16 µM, first compound 0.949 µM) 1.8% | viability, T/C (second compound 3.16 µM, first compound 3 µM) 0.15% | viability, T/C [21] 5.83% | viability, T/C [22] 2.16% | viability, T/C [23] 0.18% | viability, T/C [24] 0.11% | viability, T/C (second compound 10 µM, first compound 0.949 µM) 0.18% | viability, T/C (second compound 10 µM, first compound 3 µM) 0.15%
< 9.49 nM: IC50 (second compound 0.0316 µM) | IC50 (second compound 0.1 µM) | IC50 (second compound 0.316 µM) | IC50 (second compound 1 µM) | IC50 (second compound 3.16 µM) | IC50 (second compound 10 µM)

Nc1ccccc1NC(=O)c1ccc(CNC(=O)OCc2cccnc2)cc1 + CNC(=O)c1ccc(Nc2nc(OC3CCCC3)c3c(-c4ccc5nc(C)oc5c4)c[nH]c3n2)c(OC)c1
55 nM: IC50 (second compound 0.0316 µM)
inactive: viability, T/C [25] 54.2% | viability, T/C [26] 46.5% | viability, T/C [27] 35.2% | viability, T/C [28] 23.1% | viability, T/C [29] 19.5% | viability, T/C [31] 12.5% | viability, T/C [32] 11.8% | viability, T/C [33] 10.5% | viability, T/C [34] 12.9% | viability, T/C [55] 12.2% | viability, T/C [56] 9.96% | viability, T/C [57] 10.2% | viability, T/C [58] 12.4% | viability, T/C [59] 15.5%
active: viability, T/C [30] 4.85% | viability, T/C [35] 13.8% | viability, T/C [36] 4.28% | viability, T/C [37] 9.94% | viability, T/C [38] 9.86% | viability, T/C [39] 8.75% | viability, T/C [40] 9.9% | viability, T/C [41] 15.7% | viability, T/C [42] 4.12% | viability, T/C [43] 9.33% | viability, T/C [44] 7.31% | viability, T/C [45] 9.56% | viability, T/C [46] 11.4% | viability, T/C [47] 14.1% | viability, T/C [48] 3.25% | viability, T/C [49] 9.23% | viability, T/C [50] 8.04% | viability, T/C [51] 10.8% | viability, T/C [52] 10.7% | viability, T/C [53] 15.6% | viability, T/C [54] 3.34% | viability, T/C [60] 3.38%
< 31.6 nM: IC50 (second compound 0.1 µM) | IC50 (second compound 0.316 µM) | IC50 (second compound 1 µM) | IC50 (second compound 3.16 µM) | IC50 (second compound 10 µM)
